In patent US20250151721A1, “MOSQUITO ATTRACTANT COMPOSITIONS THAT MIMIC HUMAN ODOR IN THE MOSQUITO BRAIN” (TRUSTEES OF PRINCETON UNIVERSITY, priority 2021, published 2025):

Tests used:
[1] = system: female Aedes aegypti mosquitoes; test: Two-port olfactometer host-preference assay; assay type: in vivo; details: in the absence of human or animal odour
Method: We tested the host preference of mated, non-blood-fed, 7-14 day old females that had been housed overnight with access to water only (no sucrose). We used a two-port olfactometer for choice and no-choice tests involving live hosts (FIGS. 1A and C) or sleeves/hair (FIGS. 1B and D) as previously described3. We first acclimated 75-100 female mosquitoes in the olfactometer for 5 min, then opened a sliding door and activated a fan to pull air through the two host chambers and expose mosquitoes to host odour. Mosquitoes were able to fly upwind, sample the host-odour streams, and choose to enter either host port. After 6 min, we counted the number of mosquitoes trapped in each host port. For two-choice trials with live hosts, one chamber contained a human hand and arm up to the elbow (belonging to one of six 22-43 year old individuals: 3 female, 3 male; 3 Caucasian, 2 East Asian, 1 South Asian). The human exhaled gently near the opening of the chamber once every 30 sec to provide a source of breath. The other chamber contained a guinea pig (Cavia porcellus; one of two 4-5 year old pigmented females), rat (Rattus norvegicus domesticus; one of two 2-6 month old Sprague-Dawley males), or button quail (Coturnix coturnix; one 2-3 year old female). […]

[2] = system: Orco+ glomeruli of the antennal lobe; test: Two-photon calcium imaging of odour-evoked activity across Orco+ glomeruli; assay type: in vivo, Aedes aegypti
Excerpt: (§1) We designed a two-photon microscope that incorporates both resonant scanning^69 and remote focusing^70,71 to achieve rapid, volumetric, in vivo neural imaging. Remote focusing allows rapid switching of the imaging plane by moving a small, lightweight mirror located upstream in the imaging path. […] In diagnostic tests, transition times for switching between two planes were less than 6 ms.
We custom-designed a mosquito holder with a 3D-printed plastic frame and thin stainless-steel plate (FIG. 2C, thickness 0.001 inch). A tiny mosquito-head-sized hole was photo-chemically etched on the plate (ETCHIT Company). To prepare for imaging, we anaesthetized a female on ice for ˜1 min, pushed the anterodorsal side of her head into the hole, and fixed it with UV glue (RapidFix 6121830ES). The antennae, maxillary palps, and proboscis remained below the metal plate and contacted neither the plate nor the glue. […]
(§2) We used the ScanImage^72 package in Matlab to control the microscope and acquire images. For each individual, we chose either the right or left antennal lobe (AL) and recorded movies of odour-evoked activity (starting 7-30 sec before and continuing 20-60 sec after synthetic-odorant puffs; ˜30 sec before, ˜140 sec after puffs of complex extract). […] Laser power as measured at the sample plane was 10 mW. […]

[3] = system: animal-sensitive (A) glomerulus of the antennal lobe; test: Two-photon calcium imaging of odour-evoked activity in the animal-sensitive (A) glomerulus; assay type: in vivo, Aedes aegypti; details: for activation of A glomerulus: panel of 50 single odorants at approximately the same vapour-phase concentration
Excerpt: We designed a two-photon microscope that incorporates both resonant scanning^69 and remote focusing^70,71 to achieve rapid, volumetric, in vivo neural imaging. Remote focusing allows rapid switching of the imaging plane by moving a small, lightweight mirror located upstream in the imaging path.
(§3) We custom-designed a mosquito holder with a 3D-printed plastic frame and thin stainless-steel plate (FIG. 2C, thickness 0.001 inch). A tiny mosquito-head-sized hole was photo-chemically etched on the plate (ETCHIT Company). To prepare for imaging, we anaesthetized a female on ice for ˜1 min, pushed the anterodorsal side of her head into the hole, and fixed it with UV glue (RapidFix 6121830ES). The antennae, maxillary palps, and proboscis remained below the metal plate and contacted neither the plate nor the glue. We added room-temperature saline (103 mM NaCl, 3 mM KCl, 5 mM TES, 26 mM NaHCO3, 1 mM NaH2PO4, 1.5 mM CaCl2), 4 mM MgCl2, 10 mM Trehalose, 10 mM Glucose; pH 7.1) to the holder and used sharp forceps to remove a section of the head capsule (including both cuticle and the edge of the eyes) from the part of the head protruding through the metal plate. During imaging, we continuously perfused saline bubbled with carbogen (5% CO2, 95% O2) through the holder and across the open head capsule at 125 ml/hour.
(§4) We used the ScanImage^72 package in Matlab to control the microscope and acquire images. For each individual, we chose either the right or left antennal lobe (AL) and recorded movies of odour-evoked activity (starting 7-30 sec before and continuing 20-60 sec after synthetic-odorant puffs; ˜30 sec before, ˜140 sec after puffs of complex extract). The movies covered the entire AL in Z-stacks that were 4 μm apart at 128×128 pixel resolution (22 stacks total, green channel only for the orco-T2A-QF2-QUAS-GCaMP 6f strain; 28 stacks, green and red channels for the brp>jGCaMP7s strain). The resulting voxel size was approximately 0.9×0.8×4 μm^3, and the volumetric imaging rate was 3.76 Hz for the orco-T2A-QF2-QUAS-GCaMP 6f strain and 2.95 Hz for the brp>jGCaMP7s strain. We increased the laser power exponentially with depth (ranging from 7.5 to 10 mW) to account for light decay and scattering in deeper tissues. Laser power as measured at the sample plane was 10 mW. After recording odour-evoked activity, we acquired 30-40 high-resolution structural volumes at high laser power to aid registration and downstream analysis. For this, we imaged the AL in 120-180 z-stacks, 1 μm apart, at 256×256 pixel resolution.
(§5) We used area under df/f curves as a metric for neural activity. For single-odorant stimuli, which evoked single df/f peaks, we defined the peak boundaries by first locating the max (for activation) or min (for inhibition) points in the df/f curve and then extending from the max/min point until df/f dropped to background levels. For natural odour extracts, which sometimes evoked multiple peaks, we integrated df/f values from desorption of the focusing trap to the end of neural recording (0 to 140 sec).

[4] = system: broadly tuned (B) glomerulus of the antennal lobe; test: Two-photon calcium imaging of odour-evoked activity in the broadly tuned (B) glomerulus; assay type: in vivo, Aedes aegypti
Excerpt: as §1, §3
as §2, with “extract). The movies covered the entire AL in Z-stacks that were 4 μm apart at 128×128 pixel resolution (22 stacks total, green channel only for the orco-T2A-QF2-QUAS-GCaMP 6f strain; 28 stacks, green and red channels for the brp>jGCaMP7s strain).” for “extract).”

[5] = system: human-sensitive (H) glomerulus of the antennal lobe; test: Two-photon calcium imaging of odour-evoked activity in the human-sensitive (H) glomerulus; assay type: in vivo, Aedes aegypti; details: for response of H glomerulus: panel of 50 single odorants at approximately the same vapour-phase concentration (that of sulcatone in 1× human odour)
Excerpt: as §1, §3, §4
The three target glomeruli could be reliably identified across brains based on position and responses to key reference odorants. Human-sensitive glomerulus H was located in the anterior AL, adjacent to a landmark non-Orco glomerulus in our two-photon images (unlabeled area surrounded by Orco+ glomeruli; FIGS. 8A-B), and responded to 10^−2 heptanal. Animal-sensitive glomerulus A was located in the dorsal AL and responded to 10^−2 phenol. Broadly tuned glomerulus B was located in the posterior-medial AL and responded to 10^−2 benzaldehyde. Glomeruli H, A, and B tentatively correspond to V3, MD2, and PD1, respectively, in a previously published atlas^35, but we cannot be sure without molecular markers.
as §5, with “sec). […]” for “sec).”

[6] = concentrations calibrated to about ⅕th of activity evoked by 1× human odour, paraffin oil
[7] = synthetic odorants singly or as combo, vapour-phase concentrations characteristic of 1× human odour, 3-sec puffs

O=C=O [synthetic CO2, CO2]
response of female mosquitoes in no-choice olfactometer trials [1]: minimal

CC(=O)CCC=C(C)C [sulcatone]
glomerular activity in response to the compound ([2]; at its concentration in 1× human odour): did not see consistent activity
glomerular activity in response to the compound ([2]; higher doses (data not shown)): several glomeruli responded

CS(C)(=O)=O [dimethyl sulfone]
activation of A glomerulus [3]: strongly activated

CCCCCCO [1-hexanol]
activity evoked in B glomerulus [4, 6]: evoked activity in their cognate glomeruli

CCCCCCCCCCC=O [undecanal]
response of H glomerulus [5]: strong activity
duration of H glomerulus activity beyond the 3-second puff ([5]; single odorant at equal vapour-phase concentration): ≥ 40 s
activity evoked in H glomerulus [5, 7]: strong and prolonged activity

CC(=O)C(C)O (stereo not shown) [acetoin]
activation of B glomerulus ([4]; synthetic odorants singly or as combo, vapour-phase concentrations characteristic of 1× human odour): strongly activated
activation of A glomerulus [3]: strongly activated
activity evoked in A glomerulus ([3]; physiological concentrations (as in 1× human odour)): too low to evoke consistent activity

CCCCCCCCCC=O [Decanal]
activity evoked in H glomerulus [5, 6]: evoked activity in their cognate glomeruli
activity evoked in H glomerulus [5, 7]: strong and prolonged activity

CCCCCC=O [hexanal]
response of H glomerulus [5]: no response

O=Cc1ccccc1 [benzaldehyde]
response of B glomerulus to reference odorant ([4]; 10^−2 dilution): responded

Cc1ccc(O)cc1 [p-cresol]
activation of A glomerulus [3]: strongly activated

Oc1ccccc1 [phenol]
response of A glomerulus to reference odorant ([3]; 10^−2 dilution): responded
activation of A glomerulus [3]: strongly activated

CCCCCCC=O [heptanal]
response of H glomerulus to reference odorant ([5]; 10^−2 dilution): responded
